Measurements published in article PMC11744668, “2-Cyanopyrimidine-Containing Molecules for N-Terminal Selective Cyclization of Phage-Displayed Peptides” (ACS Chemical Biology, 2025).
“Also recorded” adds a separate entry of the source. Starred links: 1 amine or outer side, 2 acyl side, 3 side chain; linkers in the order of their positions; H or OH if unused. Positions of bridges follow the written chain, without caps; N, C: chain ends. Non-standard residues stand in square brackets, D forms with d. Residues, ends and D or L forms follow the SMILES beside them. No end group written: not given here. X1 = O=C([C@@H]1CSC(c2ncc(N[*:1])cn2)=N1)[*:2]; X2 = O=C([C@@H]1CSC(c2nccc(N[*:1])n2)=N1)[*:2]; Abu = CC[C@H](N)C(=O)O

What was measured:
[1] = target: T1, ZNRF3 extracellular domain (ZNRF3-ECD) (Homo sapiens, UniProt Q9ULT6); assay: Biolayer interferometry (BLI) binding to immobilized biotinylated ZNRF3-ECD
T1 construct: The ZNRF3 ECD was expressed and characterized exactly as previously described; SUMO (N, cleaved yes); made in house; host or cells: E. coli BL21, co-expressing BirA
T1 sequence (Q9ULT6 56-219 limits assumed): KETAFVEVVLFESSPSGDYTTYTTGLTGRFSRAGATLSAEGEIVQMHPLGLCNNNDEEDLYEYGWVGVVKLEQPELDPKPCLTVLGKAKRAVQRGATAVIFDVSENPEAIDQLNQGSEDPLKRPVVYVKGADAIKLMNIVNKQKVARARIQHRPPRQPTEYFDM
Experimental: The ZNRF3 ECD was expressed and characterized exactly as previously described.[38] Plasmid pET28a-SUMO-ZNRF3-Avi was cotransformed into E. coli (BL21) along with a plasmid expressing BirA. The cells were then inoculated into 2× YT containing 50 μg/mL kanamycin and 34 μg/mL chloramphenicol and grown at 37 °C until OD = 0.5. Expression was then induced by the addition of 1 mM IPTG and 50 μM biotin, and then the protein was expressed for 18 h at 16 °C. The cells were then pelleted (3750g, 15 min) and then resuspended in buffer A (50 mM Tris-HCl, 10% glycerol, 150 mM NaCl, and 25 mM imidazole, pH 7.5, 20 mL/liter of expression). The cells were then lysed by sonication (1 s on, 1 s off, 5 min, 60% A, repeated once), and the lysate was clarified by centrifugation (25,000g, 20 min). The supernatant was then incubated with a Ni-NTA column for 45 min at 4 °C. The column was then washed with 5 CV of buffer A before being eluted using 2 CV of buffer B (buffer A + 240 mM imidazole). The elution was then concentrated using an Amicon centrifugal filter before being desalted into buffer A on a HiPrep 26/10 column. The SUMO tag was then cleaved by the addition of 30 μg/mL SUMO protease and incubation for 48 h at 4 °C. The protein was then loaded onto a second Ni-NTA column for 45 min at 4 °C, and the flowthrough was collected and concentrated to 1 mL by centrifugation. Pure protein was then isolated using size exclusion chromatography (HiLoad 16/600, Superdex 75 pg) in buffer C (50 mM Tris-HCl, pH 7.5, 10% (v/v) glycerol, 150 mM NaCl, and 0.5 mM EDTA). Pure protein was stored in storage buffer (50 mM Tris-HCl, pH 7.5, 50% (v/v) glycerol, and 150 mM NaCl) at −80 °C before being used for assays.
Biolayer interferometry (BLI) experiments were performed using streptavidin-coated biosensors (Sartorius Bio) on an Octet R8 biolayer interferometer (Sartorius Bio). All experiments were performed in assay buffer (10 mM HEPES, 150 mM NaCl, and 0.01% Tween 20, pH 7.5). Biotinylated ZNRF3 (28 μg/mL in assay buffer) was loaded onto the sensor to 4 nm of loading over 10 min, and then the sensors were quenched for one min with a 1% BSA solution in assay buffer. Peptides were serially diluted in assay buffer containing 0.8% DMF, and the association and dissociation to ZNRF3 were measured over 3 and 5 min, respectively. Between each experiment, sensors were regenerated using 10 mM glycine, pH 1.5. Binding curves were double-referenced against a protein-only sensor and a parallel unloaded sensor to correct for any nonspecific binding to the sensors. All curves were fit in the Octet Kinetic Analysis program (Sartorius Bio) using a 1:1 protein/ligand binding model.

[2] = target: T1, ZNRF3 extracellular domain (ZNRF3-ECD); assay: Phage selection against ZNRF3-ECD, NGS enrichment, pCAmCP-cyclized library; format: binding
Description: (§1) In addition to simply ensuring the cyclization potential on phage, we also looked to investigate the selection differences using two different linkers to macrocyclize the same initial peptide library. ZNRF3 is a membrane protein that contains an intracellular E3 ligase domain and has previously shown potential in promoting degradation of oncogenic membrane proteins, such as PDL1.[32] ZNRF3 also plays a major role in the regulation of the Wnt signaling cascade, which can modulate a variety of cell processes related to oncogenesis and cell differentiation.[33]−[36] […] Because it has an extracellular domain that can be easily accessible to macrocyclic peptides, we envisioned that a selection against the extracellular domain for ZNRF3 (ZNRF3-ECD) would afford peptides that could potentially be used in the development of proteolysis-targeting chimeras (PROTACs) for a variety of membrane proteins. We expressed and characterized a biotinylated ZNRF3-ECD using an Avi-Tag on the […] to facilitate the selection using streptavidin magnetic beads, as has been previously described (Figure S20).[38] […] To avoid the potential for enriching peptides that bind to the streptavidin resin, we alternated loading the protein using streptavidin and NHS-functionalized magnetic beads for the first three rounds of selection (Figure 5).
(§2) The purified phage library (10^11 to 10^12 cfu) in binding buffer was incubated with 1 mM TCEP at 37 °C. After 30 min, the linker (pCAmCP or mCAmCP, 10 mM in DMSO) was added to a final concentration of 100 μM. The solution was incubated for 24 h at RT with slow rotation. The library was then directly used for affinity selection without further purification.
(§3) Streptavidin-coated magnetic beads (100 μL, 50% slurry, Cytiva Sera-Mag) were transferred to a 1.5 mL tube, washed three times with 1 mL of binding buffer (10 mM HEPES, 150 mM NaCl, 10 mM MgCl2, and 1 mM KCl, pH 7.4), resuspended in 100 μL of binding buffer, and split into two tubes. […]

[3] = target: T1, ZNRF3 extracellular domain (ZNRF3-ECD); assay: Phage selection against ZNRF3-ECD, NGS enrichment, mCAmCP-cyclized library; format: binding
Description: as §1, §2, §3

[4] = Solubility observation for synthesized peptides; format: physicochemical; conditions: observed at synthesis / BLI testing
[5] = Chloroacetamide addition kinetics with N-terminal Abu peptide CGK-5Abu; conditions: 500 μM peptide; CGK-5Abu vs CGK-5
Description: While pCAmCP and mCAmCP gave efficient cyclization of the peptide fusion of sfGFP, we looked to further investigate the specificity of the reaction using peptide kinetic assays. To do this, we first established reactivity of the compounds with a model peptide (CGK-5, Figures 3A and S16) that was composed of two cysteines flanking a region tuned for solubility in buffer (GGKGG) and with a tryptophan residue on the C-terminus for UV absorbance. […] To test the specificity of the reaction for the N-terminal cysteine, we synthesized a peptide analogue (CGK-5Abu, Figures 3D–F and S17) that contained 2-aminobutyric acid in place of the N-terminal cysteine. […] Since these reactions occurred at 500 μM of peptide to allow for analysis on the HPLC, we envision this difference will likely be exaggerated when using lower peptide/protein concentrations. Although it is unlikely at neutral pH, the chloroacetamide moiety can possibly react with nucleophilic amino acids other than cysteine. […]
The peptide (CGK-5 or CGK-5Abu, 5 mM stock in water) was diluted to 500 μM in ammonium bicarbonate buffer (50 mM, pH 7.5) containing 1.2 mM TCEP. […] Following dilution with 20 μL of water, the sample was then analyzed on a Shimadzu HPLC with an LCMS-2020 mass spectrometer attached (10–40% ACN gradient in H2O over 6 min, 0.1% formic acid, 1 mL/min flow rate, Shimadzu C18 250 × 4.6 mm, 5 μm). […]

[6] = target: T2, ZNRF3 extracellular domain (biotinylated) (UniProt Q9ULT6 56-219, biotin (on the Avi-Tag; co-expression with BirA and 50 uM biotin)); assay: BLI; biotinylated ZNRF3-ECD loaded on streptavidin biosensors (Octet R8); peptides serially diluted in 10 mM HEPES, 150 mM NaCl, 0.01% Tween 20, pH 7.5 with 0.8% DMF; association 3 min, dissociation 5 min; double-referenced; 1:1 binding model; conditions: both partners purified
T2 construct: ZNRF3, extracellular domain; also called ZNRF3-ECD; ZNRF3 ECD; source: E. coli (BL21), co-expressed with BirA, purified (Ni-NTA, SUMO protease, second Ni-NTA, SEC Superdex 75); not shown: Avi-Tag, N-terminal, kept
T2 sequence (looked up): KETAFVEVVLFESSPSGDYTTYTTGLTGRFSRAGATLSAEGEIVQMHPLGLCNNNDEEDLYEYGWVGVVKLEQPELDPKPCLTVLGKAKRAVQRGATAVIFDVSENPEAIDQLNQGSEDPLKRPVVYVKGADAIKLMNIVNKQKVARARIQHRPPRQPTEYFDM

Molecule: CC(C)C[C@@H]1NC(=O)[C@H](CCCCN)NC(=O)[C@H](CCC(N)=O)NC(=O)[C@H](CCCNC(=N)N)NC(=O)[C@H](Cc2c[nH]c3ccccc23)NC(=O)[C@H](C)NC(=O)[C@H](CCC(=O)O)NC(=O)[C@H](CC(C)C)NC(=O)[C@@H]2CCCN2C(=O)[C@H](CO)NC(=O)[C@H](CC(C)C)NC(=O)[C@H](Cc2c[nH]cn2)NC(=O)[C@@H]2CSC(=N2)c2ncc(cn2)NC(=O)CSC[C@@H](C(N)=O)NC1=O [Peptide Z27S1] ({CH2CO}-[X1]HLSPLEAWRQKLC-NH2; thioether N-14)
- binding to ZNRF3 (in words) ([1]; 10 mM HEPES, 150 mM NaCl, 0.01% Tween 20, pH 7.5, 0.8% DMF): nanomolar affinity to ZNRF3
- Kd ([1]; streptavidin biosensors, pH 7.5, 1:1 binding model, value as given in abstract): 360 nM
- fold increase in abundance after round 2 ([2]; enrichment after round 2): > 16,000 -fold
- presence in round 1 sequencing data (in words) ([2]; round 1): not found in the round 1 sequencing data
- share of total sequences in round 4 ([2]; round 4, 69,462 total sequences): 67%

Molecule: CSCC[C@@H]1NC(=O)[C@H](CC(C)C)NC(=O)[C@H](CC(N)=O)NC(=O)[C@H](CCC(=O)O)NC(=O)[C@H](Cc2c[nH]c3ccccc23)NC(=O)[C@H](CC(N)=O)NC(=O)[C@H](CC(C)C)NC(=O)[C@H](CCCNC(=N)N)NC(=O)[C@H](CC(C)C)NC(=O)[C@H](Cc2ccccc2)NC(=O)[C@@H]2CSC(=N2)c2nccc(n2)NC(=O)CSC[C@@H](C(N)=O)NC(=O)[C@H](Cc2c[nH]c3ccccc23)NC(=O)[C@@H]2CCCN2C1=O [Peptide Z28S1] ({CH2CO}-[X2]FLRLNWENLMPWC-NH2; thioether N-14; C-terminus assumed)
- off rates (in words) ([1]; pH 7.5, dissociation over 5 min): high off rates; also recorded: extremely quick off rates
- fold enrichment after round 1 ([3]; after round 1): over 32,000 -fold
- share of total sequences after round 4 ([3]; round 4, 84,190 total sequences): 81%

Molecule: CELVMMHGYWWRQC (also: sidechain bridge or staple (positions not given here)) [Peptide Z28S2, peptide enriched in the mCAmCP selection]
- fold increase in abundance after round 2 ([3]; after round 2): ~5000 -fold
- solubility (in words) [4]: poor solubility during synthesis

Molecule: [Abu]GGKGGCGW [CGK-5Abu, peptide analogue with 2-aminobutyric acid in place of the N-terminal cysteine]
- rate of reaction relative to the cyclization reaction, fold slower [5]: ~3 -fold slower

Molecule: [Abu]HLSPLEAWRQKL[Abu] [Z27S1Abu (linear analogue of Z27S1)]
- Kd [6]: 2600 nM
